Assay results taken from US20090018134A1, “Compounds - 945” (AstraZeneca AB, priority 2007, published 2009).
Read-outs that look alike come from different tables or passages of the source.

Target: T1, mTOR (Homo sapiens, UniProt P42345)
T1 construct: FLAG; made in house
Experiment: In Vitro mTOR Kinase Assay (Echo), Test (a)(ii)
Assay type: biochemical
In short: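 Inhibition of truncated mTOR (1362-2549, FLAG-tagged, purified from stably transfected HEK293 cells) is measured as reduced AlphaScreen signal from a phospho-T389-recognising antibody bound to the biotinylated peptide product. Kinase incubation lasts 2 hours at room temperature. Potency is given as IC50.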

[1] = table of enzyme assay Test (a)(ii), read-out: Test (a)(ii) IC50
[2] = read-out: mTOR Kinase Assay (Echo)

T1 sequence (P42345 1362-2549): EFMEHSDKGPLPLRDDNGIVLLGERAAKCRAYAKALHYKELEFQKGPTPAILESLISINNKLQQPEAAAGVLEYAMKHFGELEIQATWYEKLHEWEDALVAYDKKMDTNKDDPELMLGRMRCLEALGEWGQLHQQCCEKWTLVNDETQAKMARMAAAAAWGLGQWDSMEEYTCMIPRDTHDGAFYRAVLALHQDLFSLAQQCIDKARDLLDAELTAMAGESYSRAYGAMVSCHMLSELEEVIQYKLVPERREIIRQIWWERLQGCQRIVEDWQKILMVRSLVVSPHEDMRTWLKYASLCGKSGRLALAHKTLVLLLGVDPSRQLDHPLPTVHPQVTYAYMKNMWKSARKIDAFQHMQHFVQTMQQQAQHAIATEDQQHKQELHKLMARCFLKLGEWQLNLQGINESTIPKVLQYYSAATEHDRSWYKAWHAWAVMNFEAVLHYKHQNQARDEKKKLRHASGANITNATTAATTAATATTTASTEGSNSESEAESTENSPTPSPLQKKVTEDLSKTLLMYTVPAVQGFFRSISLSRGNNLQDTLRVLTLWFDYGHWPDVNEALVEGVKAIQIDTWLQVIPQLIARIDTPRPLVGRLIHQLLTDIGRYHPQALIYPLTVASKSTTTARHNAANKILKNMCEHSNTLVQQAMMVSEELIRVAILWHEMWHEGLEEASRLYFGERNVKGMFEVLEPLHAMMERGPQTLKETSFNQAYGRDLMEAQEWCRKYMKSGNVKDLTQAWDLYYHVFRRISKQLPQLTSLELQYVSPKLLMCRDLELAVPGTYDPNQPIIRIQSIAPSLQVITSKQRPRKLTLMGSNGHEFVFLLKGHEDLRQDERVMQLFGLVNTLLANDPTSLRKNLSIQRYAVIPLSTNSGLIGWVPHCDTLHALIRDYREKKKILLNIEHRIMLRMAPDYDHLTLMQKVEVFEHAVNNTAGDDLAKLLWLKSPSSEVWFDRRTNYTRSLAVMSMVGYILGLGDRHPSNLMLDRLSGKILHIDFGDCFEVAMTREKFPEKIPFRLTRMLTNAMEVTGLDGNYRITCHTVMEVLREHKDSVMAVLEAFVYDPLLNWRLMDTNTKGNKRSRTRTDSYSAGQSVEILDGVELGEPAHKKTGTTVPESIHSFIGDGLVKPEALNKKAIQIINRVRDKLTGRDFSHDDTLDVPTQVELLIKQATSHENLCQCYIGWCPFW

C[C@H]1COCCN1c1cc(C2(S(=O)(=O)c3ccccn3)CC2)nc(-c2ccc(NC(=O)NCc3ncc[nH]3)cc2)n1 [Example 36cu, 3-(1H-imidazol-2-ylmethyl)-1-[4-[4-[(3S)-3-methymorpholin-4-yl]-6-(1-pyridin-2-ylsulfonylcyclopropyl)pyrimidin-2-yl]phenyl]urea]
IC50 [1]: 68.6 nM

CCNC(=O)Nc1ccc(-c2nc(N3CCOC[C@@H]3C)cc(C3(S(=O)(=O)CC)CC3)n2)cc1 [Example 11b, 1-ethyl-3-[4-[4-(1-ethylsulfonylcyclopropyl)-6-[(3S)-3-methylmorpholin-4-yl]pyrimidin-2-yl]phenyl]urea]
IC50 [2]: 3.33 nM

CCNC(=O)Nc1ccc(-c2nc(N3CCOCC3)cc(C3(S(=O)(=O)CCO)CC3)n2)cc1 [Example 47b, 3-ethyl-1-[4-[4-[1-(2-hydroxyethylsulfonyl)cyclopropyl]-6-morpholin-4-ylpyrimidin-2-yl]phenyl]urea]
IC50 [1]: 14.9 nM

CNC(=S)Nc1ccc(-c2nc(N3CCOC[C@@H]3C)cc(C3(S(=O)(=O)c4nc(C)cs4)CC3)n2)cc1 [Example 37p, 3-methyl-1-[4-[4-[(3S)-3-methylmorpholin-4-yl]-6-[1-[(4-methyl-1,3-thiazol-2-yl)sulfonyl]cyclopropyl]pyri-midin-2-yl]phenyl]thiourea]
IC50 [1]: 5.34 nM

C[C@H]1COCCN1c1cc(C2(S(=O)(=O)c3ccccc3Cl)CC2)nc(-c2ccc(NC(=O)NCC(F)F)cc2)n1 [Example 76d, 1-[4-[4-[1-(2-chlorophenyl)sulfonylcyclopropyl]-6-[(3S)-3-methylmorpholin-4-yl]pyrimidin-2-yl]phenyl]-3-(2,2-difluoroethyl)urea]
IC50 [1]: 9.24 nM

C[C@H]1COCCN1c1cc(C2(S(=O)(=O)c3ccccc3)CC2)nc(-c2ccc(NC(=S)NCCCO)cc2)n1 [Example 37x, 1-[4-[4-[1-(benzenesulfonyl)cyclopropyl]-6-[(3S)-3-methylmorpholin-4-yl]pyrimidin-2-yl]phenyl]-3-(3-hydroxypropyl)thiourea]
IC50 [1]: 9.44 nM

C[C@H]1COCCN1c1cc(C2(S(=O)(=O)c3ccc(F)cc3)CCC2)nc(-c2ccc(NC(=O)NCc3ncc[nH]3)cc2)n1 [Example 65, 1-[4-[4-[1-(4-Fluorophenyl)sulfonylcyclobutyl]-6-[(3S)-3-methylmorpholin-4-yl]pyrimidin-2-yl]phenyl]-3-(1H-imidazol-2-ylmethyl)urea]
IC50 [1]: 30 nM

N#CCCNC(=O)Nc1ccc(-c2nc(N3CCOCC3)cc(C3(S(=O)(=O)c4ccccc4)CC3)n2)cc1 [Example 36dh, 1-[4-[4-[1-(benzenesulfonyl)cyclopropyl]-6-morpholin-4-ylpyrimidin-2-yl]phenyl]-3-(2-cyanoethyl)urea]
IC50 [1]: 3.4 nM

C[C@H]1COC[C@H](C)N1c1cc(C2(S(=O)(=O)c3ccccc3)CC2)nc(-c2ccc(NC(=O)NC3CC3)cc2)n1 [Example 93, 1-[4-[4-[1-(Benzenesulfonyl)cyclopropyl]-6-[(3S,5S)-3,5-dimethylmorpholin-4-yl]pyrimidin-2-yl]phenyl]-3-cyclopropylurea]
IC50 [1]: 5.05 nM

C[C@H]1COCCN1c1cc(C2(S(=O)(=O)c3ccc(Cl)cc3)CC2)nc(-c2ccc(NC(=O)Nc3ccon3)cc2)n1 [Example 64ai, 1-[4-[4-[1-(4-chlorophenyl)sulfonylcyclopropyl]-6-[(3S)-3-methylmorpholin-4-yl]pyrimidin-2-yl]phenyl]-3-(1,2-oxazol-3-yl)urea]
IC50 [1]: 5.67 nM

C[C@H]1COCCN1c1cc(C2(S(=O)(=O)CCCO)CCOCC2)nc(-c2ccc(NC(=O)NC3CC3)cc2)n1 [Example 36cc, 3-cyclopropyl-1-[4-[4-[4-(3-hydroxypropylsulfonyl)oxan-4-yl]-6-[(3S)-3-methylmorpholin-4-yl]pyrimidin-2-yl]phenyl]urea]
IC50 [1]: 129 nM

Cc1csc(S(=O)(=O)C2(c3cc(N4CCOC[C@@H]4C)nc(-c4ccc(NC(=O)NCCCO)cc4)n3)CCCC2)n1 [Example 36dn, 3-(3-hydroxypropyl)-1-[4-[4-[(3S)-3-methylmorpholin-4-yl]-6-[1-[(4-methyl-1,3-thiazol-2-yl)sulfonyl]cyclopentyl]pyrimidin-2-yl]phenyl]urea]
IC50 [1]: 13.8 nM

C[C@H]1COCCN1c1cc(C2(S(=O)(=O)CCC(C)(C)O)CC2)nc(-c2ccc(NC(=O)NCCF)cc2)n1 [Example 79d, 3-(2-fluoroethyl)-1-[4-[4-[1-(3-hydroxy-3-methylbutyl)sulfonylcyclopropyl]-6-[(3S)-3-methylmorpholin-4-yl]pyrimidin-2-yl]phenyl]urea]
IC50 [1]: 16.1 nM

C[C@H]1COCCN1c1cc(C2(S(=O)(=O)CCO)CC2)nc(-c2ccc(NC(=O)Nc3ncns3)cc2)n1 [Example 16c, 1-[4-[4-[1-(2-hydroxyethylsulfonyl)cyclopropyl]-6-[(3S)-3-methylmorpholin-4-yl]pyrimidin-2-yl]phenyl]-3-(1,2,4-thiadiazol-5-yl)urea]
IC50 [1]: 1.6 nM

CCCNC(=O)Nc1ccc(-c2nc(N3CCOC[C@@H]3C)cc(C3(S(=O)(=O)C4CC4)CC3)n2)cc1 [Example 3h, 3-[4-[4-(1-cyclopropylsulfonylcyclopropyl)-6-[(3S)-3-methylmorpholin-4-yl]pyrimidin-2-yl]phenyl]-1-propyl-urea]
IC50 [2]: 16.5 nM

CCNC(=O)Nc1ccc(-c2nc(N3[C@@H](C)COC[C@@H]3C)cc(C3(S(=O)(=O)c4ccccc4)CC3)n2)cc1 [Example 72, 1-[4-[4-[1-(Benzenesulfonyl)cyclopropyl]-6-[(3S,5S)-3,5-dimethylmorpholin-4-yl]pyrimidin-2-yl]phenyl]-3-ethylurea]
IC50 [1]: 4.32 nM

C[C@H]1COCCN1c1cc(C2(S(C)(=O)=O)CC2)nc(-c2ccc(NC(=O)Nc3ccc(F)cc3)cc2)n1 [Example 2p, 3-(4-fluorophenyl)-1-[4-[4-[(3S)-3-methylmorpholin-4-yl]-6-(1-methylsulfonylcyclopropyl)pyrimidin-2-yl]phenyl]urea]
IC50 [2]: 2.7 nM

Cc1noc(C)c1S(=O)(=O)C1(c2cc(N3CCOC[C@@H]3C)nc(-c3ccc(NC(=O)Nc4cnn(C)c4)cc3)n2)CC1 [Example 59g, 1-[4-[4-[1-[(3,5-dimethyl-1,2-oxazol-4-yl)sulfonyl]cyclopropyl]-6-[(3S)-3-methylmorpholin-4-yl]pyrimidin-2-yl]phenyl]-3-(1-methylpyrazol-4-yl)urea]
IC50 [1]: 101 nM

C[C@H]1COCCN1c1cc(C2(S(=O)(=O)CCCO)CC2)nc(-c2ccc(NC(=O)NC3(CO)CC3)cc2)n1 [Example 36a, 3-[1-(hydroxymethyl)cyclopro-pyl]-1-[4-[4-[1-(3-hydroxypropylsulfonyl)cyclopropyl]-6-[(3S)-3-methylmorpholin-4-yl]pyrimidin-2-yl]phenyl]urea]
IC50 [1]: 142 nM

C[C@H]1COCCN1c1cc(C2(S(=O)(=O)CCCO)CCOCC2)nc(-c2ccc(NC(=O)Nc3cnn(C)c3)cc2)n1 [Example 36ch, 1-[4-[4-[4-(3-hydroxypropylsulfonyl)oxan-4-yl]-6-[(3S)-3-methylmorpholin-4-yl]pyrimidin-2-yl]phenyl]-3-(1-methylpyrazol-4-yl)urea]
IC50 [1]: 208 nM

C[C@H]1COCCN1c1cc(C2(S(=O)(=O)CCCO)CCC2)nc(-c2ccc(NC(=S)NCc3ncc[nH]3)cc2)n1 [Example 99c, 1-[4-[4-[1-(3-hydroxypropylsulfonyl)cyclobutyl]-6-[(3S)-3-methylmorpholin-4-yl]pyrimidin-2-yl]phenyl]-3-(1H-imidazol-2-ylmethyl)thiourea]
IC50 [1]: 239 nM

C[C@H]1COCCN1c1cc(C2(S(=O)(=O)c3ccc(F)cc3)CC2)nc(-c2ccc(NC(=O)NCc3ncc[nH]3)cc2)n1 [Example 36aa, 1-[4-[4-[1-(4-fluorophenyl)sulfonylcyclopropyl]-6-[(3S)-3-methylmorpholin-4-yl]pyrimidin-2-yl]phenyl]-3-(1H-imidazol-2-ylmethyl)urea]
IC50 [1]: 74.9 nM

C[C@H]1COCCN1c1cc(C2(S(=O)(=O)CCCO)CC2)nc(-c2ccc(NC(=O)Nc3ccon3)cc2)n1 [Example 64ak, 1-[4-[4-[1-(3-hydroxypropylsulfonyl)cyclopro-pyl]-6-[(3S)-3-methylmorpholin-4-yl]pyrimidin-2-yl]phenyl]-3-(1,2-oxazol-3-yl)urea]
IC50 [1]: 1.61 nM

C[C@H]1COCCN1c1cc(C2(S(=O)(=O)c3ccc(C(N)=O)cc3Cl)CC2)nc(-c2ccc(NC(=O)NCCO)cc2)n1 [Example 85d, 3-chloro-4-[1-[2-[4-(2-hydroxyethylcarbamoylamino)phenyl]-6-[(3S)-3-methylmorpholin-4-yl]pyrimidin-4-yl]cyclopropyl]sulfonylbenzamide]
IC50 [1]: 3.23 nM

CNC(=O)Nc1ccc(-c2nc(N3CCOC[C@@H]3C)cc(C3(S(=O)(=O)c4ccc(C#N)cc4Cl)CC3)n2)cc1 [Example 85e, 1-[4-[4-[1-(2-chloro-4-cyanophenyl)sulfonylcyclopropyl]-6-[(3S)-3-methylmorpholin-4-yl]pyrimidin-2-yl]phenyl]-3-methylurea]
IC50 [1]: 18.3 nM

C[C@H]1COCCN1c1cc(C2(S(=O)(=O)c3ccncc3)CC2)nc(-c2ccc(NC(=O)Nc3ccccn3)cc2)n1 [Example 6a, 1-[4-[4-[(3S)-3-methylmorpholin-4-yl]-6-(1-pyridin-4-ylsulfonylcyclopropyl)pyrimidin-2-yl]phenyl]-3-pyridin-2-yl-urea]
IC50 [2]: 2.93 nM

C[C@H]1COCCN1c1cc(C2(S(=O)(=O)c3ccccn3)CC2)nc(-c2ccc(NC(=O)Nc3cnn(C)c3)cc2)n1 [Example 28l, 1-[4-[4-[(3S)-3-methylmorpholin-4-yl]-6-(1-pyridin-2-ylsulfonylcyclopropyl)pyrimidin-2-yl]phenyl]-3-(1-methylpyrazol-4-yl)urea]
IC50 [1]: 0.442 nM

CNC(=O)Nc1ccc(-c2nc(N3CCOC[C@@H]3C)cc(C3(S(=O)(=O)CCOC)CC3)n2)cc1 [Example 51, 1-[4-[4-[1-(2-Methoxyethylsulfonyl)cyclopropyl]-6-[(3S)-3-methylmorpholin-4-yl]pyrimidin-2-yl]phenyl]-3-methylurea]
IC50 [1]: 3.32 nM
